Results on 21 compounds are retold here after patent US10807974B2, “Methylamine derivatives as lysysl oxidase inhibitors for the treatment of cancer” (The Institute of Cancer Research: Royal Cancer Hospital, priority 2016, dated 2020).

In one series the target is LOXL2 (Homo sapiens (Human), UniProt Q9Y4K0). Nature of the series: LOXL2 enzyme activity assay (ROS-Glo; pre-incubation 20 min Method (a), 60 min Method (b), 20 h Method (c)). It counts as biochemical.
In another series the target is MAO-A (Homo sapiens (Human), UniProt P21397). Nature of the series: Monoamine oxidase A (MAO-A) selectivity assay. It counts as biochemical.
Another series concerns the target MAO-B (Homo sapiens (Human), UniProt P27338). Kind of series: Monoamine oxidase B (MAO-B) selectivity assay. It counts as biochemical.
For series [1], the system named is MATN2 in MDA-MB-231 cells. Kind of series: MATN2 level in treated cells. The series is classed as cell-based, human. Here is the method: All samples were fixed in 4% paraformaldehyde (EMS). Fixed cells were then subjected to incubation with primary antibodies followed by fluorescence secondary antibodies (Life Technologies) to visualise extracellular proteins. Anti-human MATN2 (R&D) antibody was used at 1:100 dilutions. DAPI (Sigma) was used to stain DNA.
Proteins were extracted from cultured cells using cell lysis buffer (Cell Signalling Technology) with the addition of protease and phosphatase inhibitor cocktails (Pierce). Protein concentrations were measured using Pierce 660 nm protein assay reagent and SpectaMax M5 plate reader. […] Separated proteins were transferred to nitrocellulose membranes using a Trans-Blot turbo transfer system (Bio-Rad). Following blocking with Odyssey blocking buffer (Li-COR), membranes were incubated with two primary antibodies of different species at 4° C. over night. Corresponding fluorescence secondary antibodies (Li-COR) of different excitation and emission wavelengths were used to visualize the protein of interest on an Odyssey CLx infrared imaging system (Li-COR). Quantification of band fluorescent intensity was achieved using Li-COR ImageStudio. The following primary antibodies were used, anti-LOX (Sigma), anti-human MATN2 (R&D), anti-EGFR and anti-pY1068EGFR (Cell Signalling Technology), and anti-GAPDH (Millipore).

Series [2] relates to TGF beta signalling (pSMAD2). Kind of series: TGF beta signalling (pSMAD2). The series is classed as cell-based. The settings on record: FIG. 15b.
Series [3] relates to diet-induced obesity in rats. The settings on record: diet-induced obesity in rats (Miana, Galan et al. 2015); cited from earlier work.
The subject of another series is adipose tissue. The settings on record: Heiberg, Khan et al. 2009; cited from earlier work.
The test system of series [4] is human breast cancer cells. The settings on record: cited from earlier work.
Another series deals with human cancer cell lines. The settings on record: several human cancer cell lines; cited from earlier work.
The subject of a further series is cervical cancer cells. The settings on record: cervical cancer cells (Yang et al. 2013); cited from earlier work.
Series [5] has as its system human breast cancer cells. The settings on record: mice treated with conditioned medium in the presence of BAPN; cited from earlier work.
The subject of another series is myocardial fibrosis. As to conditions: mouse model (Rosin, Sopel et al. 2015); cited from earlier work.
Series [6] relates to experimental pulmonary hypertension. As to conditions: Nave, Mizikova et al. 2014; cited from earlier work.
Series [7] concerns angiotensin II-induced cardiac hypertrophy. As to conditions: in vivo (Ohmura, Yasukawa et al. 2012); cited from earlier work.
The subject of another series is Staphylococcus Aureus. As to conditions: Beerlage, Greb et al. 2013; cited from earlier work.
In the next series the test system is schistosomiasis. As to conditions: cited from earlier work.
A further series relates to 3D cell culture. As to conditions: 3D cell culture (not in 2D) (Schuetze, Roehrig et al. 2015); cited from earlier work.
The nature of series [8]: in vivo. As to conditions: female, mouse, po, 50 mg/kg.
Series [9] can be described thus: in vivo. As to conditions: rat, po, 20 mg/kg.
The mark [10] stands for this setting: read-out: LOXL2 IC50 b) 1 hr, pre-incubation 1 hr, Method (b).

Counter-ions that a name gives are not always drawn. Like-named read-outs stand apart in the source and are kept apart here.

Sequence of LOXL2 (Q9Y4K0 26-774, species assumed): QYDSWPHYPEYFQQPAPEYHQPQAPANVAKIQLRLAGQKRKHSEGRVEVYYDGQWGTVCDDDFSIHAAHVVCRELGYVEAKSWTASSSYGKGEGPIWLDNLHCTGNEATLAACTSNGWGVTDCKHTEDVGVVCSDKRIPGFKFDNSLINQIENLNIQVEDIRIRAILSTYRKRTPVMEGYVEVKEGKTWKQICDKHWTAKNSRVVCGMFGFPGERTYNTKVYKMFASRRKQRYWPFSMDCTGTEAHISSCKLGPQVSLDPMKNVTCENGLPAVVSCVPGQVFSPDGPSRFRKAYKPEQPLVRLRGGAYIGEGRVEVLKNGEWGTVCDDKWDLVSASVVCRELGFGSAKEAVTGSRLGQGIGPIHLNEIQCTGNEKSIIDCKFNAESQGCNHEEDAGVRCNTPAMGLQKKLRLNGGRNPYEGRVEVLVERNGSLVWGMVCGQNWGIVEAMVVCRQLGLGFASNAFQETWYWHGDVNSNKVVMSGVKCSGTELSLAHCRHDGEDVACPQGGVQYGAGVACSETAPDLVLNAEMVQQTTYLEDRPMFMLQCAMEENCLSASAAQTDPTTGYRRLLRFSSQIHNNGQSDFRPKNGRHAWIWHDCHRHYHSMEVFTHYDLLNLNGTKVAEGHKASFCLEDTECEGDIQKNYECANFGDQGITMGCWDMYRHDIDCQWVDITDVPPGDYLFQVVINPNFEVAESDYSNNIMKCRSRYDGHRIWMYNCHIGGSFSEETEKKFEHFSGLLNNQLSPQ
Sequence of MAO-B (P27338 whole entry): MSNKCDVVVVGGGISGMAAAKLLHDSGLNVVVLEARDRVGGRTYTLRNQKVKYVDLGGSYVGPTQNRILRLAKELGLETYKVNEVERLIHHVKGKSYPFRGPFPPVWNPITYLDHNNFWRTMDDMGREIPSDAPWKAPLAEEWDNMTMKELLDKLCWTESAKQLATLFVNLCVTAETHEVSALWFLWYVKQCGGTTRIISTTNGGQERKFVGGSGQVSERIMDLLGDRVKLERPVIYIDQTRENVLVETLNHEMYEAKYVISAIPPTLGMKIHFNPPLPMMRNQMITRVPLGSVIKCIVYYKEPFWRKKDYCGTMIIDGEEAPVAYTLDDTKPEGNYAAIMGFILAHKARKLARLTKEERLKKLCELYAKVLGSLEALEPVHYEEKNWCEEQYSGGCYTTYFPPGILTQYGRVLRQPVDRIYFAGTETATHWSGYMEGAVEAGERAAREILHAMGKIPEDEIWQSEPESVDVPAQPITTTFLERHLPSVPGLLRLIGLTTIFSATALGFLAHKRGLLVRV
Sequence of MAO-A (P21397 whole entry): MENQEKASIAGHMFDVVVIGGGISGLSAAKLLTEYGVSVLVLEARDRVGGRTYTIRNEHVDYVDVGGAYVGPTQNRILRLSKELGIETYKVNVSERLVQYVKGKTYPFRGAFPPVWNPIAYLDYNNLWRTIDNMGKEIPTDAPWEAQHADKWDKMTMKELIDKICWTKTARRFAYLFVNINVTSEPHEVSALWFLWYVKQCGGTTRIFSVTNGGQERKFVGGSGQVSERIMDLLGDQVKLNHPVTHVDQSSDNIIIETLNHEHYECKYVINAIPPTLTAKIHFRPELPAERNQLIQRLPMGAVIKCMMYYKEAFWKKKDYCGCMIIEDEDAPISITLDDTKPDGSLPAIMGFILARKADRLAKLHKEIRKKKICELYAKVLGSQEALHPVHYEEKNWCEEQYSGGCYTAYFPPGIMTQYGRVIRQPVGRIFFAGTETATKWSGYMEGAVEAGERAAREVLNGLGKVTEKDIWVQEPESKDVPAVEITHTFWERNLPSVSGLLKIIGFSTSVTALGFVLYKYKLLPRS

Turning to `NCc1ncc([S+]([O-])c2ccccc2)s1` (stereo not shown) [Example 95, (5-(Phenylsulfinyl)thiazol-2-yl)methanamine Hydrochloride], on LOXL2 (read-out: LOXL2 IC50 c) 20 hr, pre-incubation 20 hr, Method (c)), the IC50 (as a rule, the point on the concentration scale where inhibition reaches its midpoint) is 1000 nM.

Regarding `N#CCCN` [BAPN, beta-aminopropionitrile], the “inhibition of MAO-A” value against MAO-A is recorded as “neither inhibits”. The “inhibition of MAO-B” value against MAO-B is “neither inhibits”. In addition, the MATN2 level entry was “MATN2 reduction” in series [1] (FIG. 15b) and “same effect” in [1] (MDA-MB-231 cells, at a much higher concentration, FIG. 13). The “TGF beta signalling as indicated by pSMAD2” value in series [2] is listed as “increased TGF beta signalling”. The body weight gain result in [3] was “reduces body weight gain”. Besides, the metabolic profile entry in [3] is “improves the metabolic profile”. The “local adipose tissue inflammation” value in the series with adipose tissue was “reduces local adipose tissue inflammation”. In addition, in series [4] (breast cancer cells in mice (Erler et al, 2006)), the metastatic tumour growth entry is reported as “can block metastatic tumour growth”. For the same compound, in series [4] (orthotopic human breast tumours or circulating human breast cancer cells, CRC, HCC, LKB1-mutant lung adenocarcinoma, anaplastic thyroid cancer, PDAC in mice), the invasion and metastasis entry was “significantly reduced invasion and metastasis”. In the series with human cancer cell lines, the “in vitro invasion activity” value is recorded as “blocks the in vitro invasion activity”. The “hypoxia-induced invasion and migration mediated by the EMT” value in the series on cervical cancer cells is on record as “can be inhibited”. Besides, in series [5], the “enhanced colonisation of the lung” value was “blocked”. Also, the myocardial fibrosis result with myocardial fibrosis is reported as “reduces myocardial fibrosis”. Besides, in [6], the “symptoms of experimental pulmonary hypertension” value is “reduces the symptoms”. In addition, the cardiac hypertrophy entry in series [7] is reported as “inhibits angiotensin II-induced cardiac hypertrophy”. Also, in the series on Staphylococcus Aureus, the “abscesses morphology and collagenisation” value is “influences resulting abscesses morphology and collagenisation”. The “size of the granulomas” value with schistosomiasis (Giboda, Zenka et al. 1992) is recorded as “reduces the size of the granulomas”. The egg load result in the series with schistosomiasis (in combination with antiparasitic drug PZQ compared to PZQ alone) was “reduces the egg load”. The “sensitivity to doxorubicin and paclitaxel” value with 3D cell culture is “can be restored”.

On to `CS(=O)(=O)c1cc(S(=O)(=O)c2ccc(CN)s2)ccc1-c1ccccc1` [Example 129, (5-((2-(Methylsulfonyl)-[1,1′-biphenyl]-4-yl)sulfonyl)thiophen-2-yl)methanamine Hydrochloride], for which the half-maximal inhibitory concentration (IC50) at LOXL2 (setting [10]) is 480 nM.

Take `Cn1c(S(=O)(=O)c2ccc3ccccc3c2)cnc1CN` [Example 123, (1-Methyl-5-(naphthalen-2-ylsulfonyl)-1H-imidazol-2-yl)methanamine Dihydrochloride]: at LOXL2 (setting [10]), the IC50 was 19000 nM.

In the case of `COc1cc(-c2cn[nH]c2)cc(S(=O)(=O)c2cnc(CN)s2)c1` [Example 142, (5-((3-methoxy-5-(1H-pyrazol-4-yl)phenyl)sulfonyl)thiazol-2-yl)methanamine tri-trifluoroacetate], at LOXL2 (setting [10]), the IC50 amounted to 410 nM.

With `COCn1cc(-c2cc(OC)cc(S(=O)(=O)c3cnc(CN)s3)c2)cn1` [Example 141, (5-((3-Methoxy-5-(1-(methoxymethyl)-1H-pyrazol-4-yl)phenyl)sulfonyl)thiazol-2-yl)methanamine tri-trifluoroacetate], the 50% inhibitory concentration (IC50) on LOXL2 (setting [10]) was 72 nM.

`NCc1ncc(S(=O)(=O)c2cc3ccccc3c3ccccc23)s1` [Example 97, (5-(Phenanthren-9-ylsulfonyl)thiazol-2-yl)methanamine Hydrochloride] registered an IC50 on MAO-B greater than 100000 nM.

`Cc1ccc(-c2cc(S(=O)(=O)c3ccc(CN)s3)ccc2S(C)(=O)=O)cc1` [Example 82, (5-((4′-Methyl-6-(methylsulfonyl)-[1,1′-biphenyl]-3-yl)sulfonyl)thiophen-2-yl)methanamine Hydrochloride]: the half-inhibitory concentration (IC50) against MAO-B was greater than 100000 nM. In the series “in vivo [8]”, the AUC (commonly concentration integrated over time) was found to be 12 µM·h and the concentration peaked (Cmax) at 9.4 µM.

In the case of `CS(=O)(=O)c1cc(-c2ccccc2)cc(S(=O)(=O)c2ccc(CN)s2)c1` [Example 68, (5-((5-(Methylsulfonyl)-[1,1′-biphenyl]-3-yl)sulfonyl)thiophen-2-yl)methanamine], in series [1] (FIG. 15b), the MATN2 level entry was “MATN2 reduction”.

As for `CN(C)C(=O)c1cc(-c2ccccc2)cc(S(=O)(=O)c2cnc(CN)s2)c1` [Example 125, 5-((2-(Aminomethyl)thiazol-5-yl)sulfonyl)-N,N-dimethyl-[1,1′-biphenyl]-3-carboxamide Dihydrochloride], the half-maximal inhibitory concentration (IC50) against MAO-A and at MAO-B was greater than 100000 nM throughout.

`CCNC(=O)c1cc(-c2cnn(C)c2)cc(S(=O)(=O)c2cnc(CN)s2)c1` [Example 154]: on LOXL2 (setting [10]), the IC50 was found to be 150 nM.

With `Cn1cc(-c2cc(C(=O)O)cc(S(=O)(=O)c3cnc(CN)s3)c2)cn1` [Example 150, 3-(2-(Aminomethyl)thiazol-5-yl)sulfonyl)-5-(1-methyl-1H-pyrazol-4-yl)benzoic Acid Trihydrochloride], the IC50 against MAO-A was greater than 100000 nM. Besides, the concentration for half-maximal inhibition (IC50) on MAO-B was greater than 100000 nM. Further, in the series “in vivo [8]”, the exposure (AUC) amounted to 38 µM·h and the peak level (Cmax) was 10 µM.

`Cn1cc(-c2cc(F)cc(S(=O)(=O)c3cnc(CN)s3)c2)cn1` [Example 131, (5-(3-Fluoro-5-(1-methyl-1H-pyrazol-4-yl)phenyl)sulfonyl)thiazol-2-yl)methanamine Trihydrochloride]: the IC50 against MAO-A and at MAO-B was greater than 100000 nM each time.

Take `CCNC(=O)c1cc(-c2ccccc2)cc(S(=O)(=O)c2cnc(CN)s2)c1` [Example 151, 5-((2-(Aminomethyl)thiazol-5-yl)sulfonyl)-N-ethyl-[1,1′-biphenyl]-3-carboxamide Dihydrochloride]: at LOXL2 (setting [10]), the IC50 came to 77 nM.

Take `NCc1ncc(S(=O)(=O)c2cc(C(=O)O)cc(-c3ccccc3)c2)s1` [Example 126, 5-((2-(Aminomethyl)thiazol-5-yl)sulfonyl)-[1,1′-biphenyl]-3-carboxylic Acid Ditrifluoroacetate]: the half-maximal inhibitory concentration (IC50) against MAO-A and on MAO-B was greater than 100000 nM in each case. The values for the AUC in “in vivo [8]” and in “in vivo [9]” were 413 µM·h and 106 µM·h, respectively. Moreover, the figures for the peak concentration (Cmax) in the series “in vivo [8]” and in “in vivo [9]” were 100 µM and 35 µM, respectively.

The compound `NCc1ncc(S(=O)(=O)c2cc(C(=O)N3CCC(O)C3)cc(-c3ccccc3)c2)s1` (stereo not shown) [Example 149, (5-((2-(Aminomethyl)thiazol-5-yl)sulfonyl)-[1,1′-biphenyl]-3-yl)(3-hydroxypyrrolidin-1-yl)methanone Dihydrochloride] registered an IC50 against LOXL2 (pre-incubation 1 hr, Method (b)) of 260 nM.

Regarding `CN(C)C(=O)c1cc(-c2ccccc2)cc(S(=O)(=O)c2csc(CN)n2)c1` [Example 162, 5-((2-(Aminomethyl)thiazol-4-yl)sulfonyl)-N,N-dimethyl-[1,1′-biphenyl]-3-carboxamide Hydrochloride], the half-inhibitory concentration (IC50) on LOXL2 (setting [10]) was determined as 310 nM.

In the case of `Cn1cc(-c2cc(C(=O)N3CC[C@@H](O)C3)cc(S(=O)(=O)c3cnc(CN)s3)c2)cn1` [Example 156, (R)-(3-(2-(Aminomethyl)thiazol-5-yl)sulfonyl)-5-(1-methyl-1H-pyrazol-4-yl)phenyl)(3-hydroxypyrrolidin-1-yl)methanone tri hydrochloride], the IC50 on LOXL2 (setting [10]) worked out at 200 nM.

As to `CN(C)C(=O)c1cc(-c2cnn(C)c2)cc(S(=O)(=O)c2csc(CN)n2)c1` [Example 164, 3-(2-(Aminomethyl)thiazol-4-yl)sulfonyl)-N,N-dimethyl-5-(1-methyl-1H-pyrazol-4-yl)benzamide Hydrochloride], at LOXL2 (setting [10]), the IC50 stood at 1200 nM.

Turning to `NCc1ccc(S(=O)(=O)c2cccc(S(=O)(=O)N3CCCC3c3ccccc3)c2)s1` (stereo not shown) [Example 124, (5-((3-((2-Phenylpyrrolidin-1-yl)sulfonyl)phenyl)sulfonyl)thiophen-2-yl)methanamine Hydrochloride], on LOXL2 (setting [10]), the half-inhibitory concentration (IC50) was determined as 120 nM.

Take `NCc1ncc(S(=O)(=O)c2cc(C(=O)NCCO)cc(-c3ccccc3)c2)s1` [Example 152, 5-((2-(Aminomethyl)thiazol-5-yl)sulfonyl)-N-(2-hydroxyethyl)-[1,1′-biphenyl]-3-carboxamide Dihydrochloride]: on LOXL2 (setting [10]), the 50% inhibitory concentration (IC50) is 560 nM.
